Assay results published in publication PMC11961260 (Royal Society Open Science, 2025).
Peptide text beside a SMILES is read from it.

How the values were obtained:
[1] = target: T1, SARS-CoV-2 main protease (M^pro) (Severe acute respiratory syndrome coronavirus 2, UniProt P0DTD1); assay: SARS-CoV-2 main protease inhibitor screening assay (Cayman Chemicals, Catalogue Number 701960); assay type: biochemical; conditions: for response in SARS-CoV-2 M^pro inhibition screening (in words: active/inactive) / % inhibition of SARS-CoV-2 M^pro: dendron 20 μM; for % inhibition of SARS-CoV-2 M^pro: 30 min pre-incubation, 2 h with substrate, room temperature, three wells
T1 construct: purchased Cayman Chemicals 701960

SARS-CoV-2 main protease = conditions: read-out: IC50 value of the positive control; cited from earlier work
[2] = no reference given; cited from earlier work
[3] = fluorescence ex 340 nm/em 490 nm

Molecule	response in SARS-CoV-2 M^pro inhibition screening (in words: active/inactive) [1]	% inhibition of SARS-CoV-2 M^pro [1, 3]	other results
Ptz-GE(FE-COOH)FE-COOH [compound 112]	active	25%	–
CC(C)C[C@H](NC(=O)OCc1ccccc1)C(=O)N[C@@H](CC1CCNC1=O)C(O)S(=O)(=O)O (stereo partly shown) [GC376]	–	–	IC50 (SARS-CoV-2 main protease): 0.15 ± 0.03 µM
Boc-E(WE-COOH)WE-COOH [C91]	non-responsiveness	< 25%	–
Ptz-GE(HE-COOH)HE-COOH [169A]	inactive	< 25%	–
Ptz-GE(YE-COOH)YE-COOH [compound 113]	inactive	< 25%	–
O=C(O)CC[C@H](NC(=O)[C@H](Cc1c[nH]c2ccccc12)NC(=O)CC[C@H](NC(=O)CNC(=O)CCN1c2ccccc2Sc2ccccc21)C(=O)N[C@@H](Cc1c[nH]c2ccccc12)C(=O)N[C@@H](CCC(=O)O)C(=O)O)C(=O)O [compound 114, Ptz-GE(WE-COOH)WE-COOH] (HELM PEPTIDE1{[O=C(CCN1c2ccccc2Sc2ccccc21)[*:2]].G.E.W.E}|PEPTIDE2{W.E}$PEPTIDE1,PEPTIDE2,3:R3-1:R1$$$V2.0)	active	33%	IC50 ([1]; figure 3B, fluorescence ex 340 nm/em 490 nm): 65 µM
Ptz-GE(wE-COOH)wE-COOH [169C]	active	31%	–
N[C@@H](CCC(=O)O)C(=O)O [glutamic acid]	–	–	pKa1(COOH) [2]: 2.19; pKa2(side chain COOH) [2]: 4.25
